# Test results as given in PMC4942781, “A sodium channel inhibitor ISTX-I with a novel structure provides a new hint at the evolutionary link between two toxin folds” (Scientific Reports, 2016).
# Bridge positions count the residues as written; N and C are the ends. Ends that are not written are not given here.
# Key:
# hNav1.8 = test: Whole-cell patch clamp, hNav1.8 in HEK293 cells; type: cell-based, human; settings: legend of Figure S3; concentration not given; 50 ms step to -10 mV, held at -80 mV
# Procedure: Electrophysiological studies.
# Currents were recorded from experimental cells using whole-cell patch clamptechnique at room temperature (22–25 °C). The patch pipettes were fabricated from borosilicate glass tubing using a two-stage vertical microelectrode puller (PC-10, Narishige, Japan). After establishing the whole-cell recording configuration, the resting potential was held at −80 mV for at least 5 min to allow adequate equilibration between the micropipette solution and the cell interior. The micropipette solution of sodium currents for dorsal root ganglion neurons contained (in mM): 105 CsF, 35 NaCl, 10 HEPES, 10 EGTA (pH 7.4). The external solution contained (in mM): 50 NaCl, 100 TEA.Cl, 2 KCl, 1.5 CaCl2, 10 HEPES, 1 MgCl2, and 5 glucose (pH 7.4). K+ currents were recorded using an internal solution containing the followings (in mM): KCl 140, MgCl2 2.5, HEPES 10, and EGTA 11 (pH 7.2). The external bathing solution contained the followings (in mM): NaCl 150, KCl 5, CaCl2 25, MgCl2 12, HEPES 10, and D-glucose 10 (pH 7.2). Calcium channel currents were measured using Ba2+ as the charge carrier. The external solution contained (in mM): 160 TEA-Cl, 10 HEPES, 2 BaCl2, 10 glucoses, adjusted to pH 7.4 with TEA-OH. […]
# Figure S1. […] The absorbance of the elution was monitored at 280 nm. […]
# hNav1.2 = test: Whole-cell patch clamp, hNav1.2 in HEK293T cells; type: cell-based, human; settings: 10 μM ISTX-I; 50 ms step to -10 mV from -80 mV
# Procedure: HEK293T (human embryonic kidney) cells were grown in DMEM containing 10% heat-inactivated FBS at 37 °C in a 5% CO2 incubator. The cDNA genes encoding human (h)Nav1.1, (h)Nav1.2, (h)Nav1.3, (h)Nav1.4, (h)Nav1.5, (h)Nav1.6 and (h)Nav1.7 were transiently transfected into HEK293T cells for electrophysiology using Lipofectamine-2000 (Invitrogen) in serum-reduced medium (Opti-MEM, Invitrogen) following the manufacturer’s instructions. The auxiliary subunits hβ1 and enhanced green florescent protein plasmids were cotransfected into HEK293T cells to increase the current density and efficiently select cells with green florescent protein for whole-cell patch-clamp recordings. After 12 h, the HEK293T cells were used for electrophysiological analysis.
# DRG neurons with a large diameter (>[…]) and those with a relatively small diameter (<[…]) were chosen by measuring TTX-s and TTX-r currents, respectively. […] Potassium, calcium, and sodium currents were recorded in experimental cells using whole-cell patch-clamp recordings at room temperature, which were performed with an HEK EPC10 patch-clamp amplifier. […] Experimental data were acquired and analyzed using the programs patch master and Sigmaplot 9.0 (Sigma, USA). […]
# Currents were recorded from experimental cells using whole-cell patch clamptechnique at room temperature (22–25 °C). […]
sequence,measurement,setting,value
"LCSENGDCAADECCVDTVFEGDMVTRSCEKTTGNFTECPGLTPIA (disulfide 2-14, 8-28, 13-38) [ISTX-I]",effect on hNav1.8,hNav1.8,No effect
same,effect on hNav1.2,hNav1.2,no effect
